According to patent publication US20110039946A1, “METHOD OF IMPROVING ATOPIC DERMATOLOGICAL DISEASES, IN WHICH A COMPOSITION COMPRISING MAGNOLOL, HONOKIOL OR A COMBINATION THEREOF IS ADMINISTERED TO A PATIENT WITH ATOPIC DERMATOLOGICAL DISEASES” (BIOSPECTRUM, INC., priority 2007, published 2011):
Read-outs that look alike come from different tables or passages of the source.

Columns and labels:
Staphylococcus aureus [1] = assay: filter-paper disk agar diffusion (Kirby-Bauer) antibacterial activity; assay type: cell-based; conditions: S. aureus; for Diameter of clear zone: filter disk 10 mm
Experimental: The standardized filter-paper disk agar diffusion method was used to determine the antibacterial activity of magnolol and honokiol against Staphylococcus aureus. This method was also well-known as Kirby-Bauer method, and has been widely used to determine the antibacterial activity (see, European Journal of Pharmacology, Junho Park et al, 2004, 496(1-3), 189-195). Briefly, Staphylococcus aureus cells were incubated with brain heart infusion (BHI) broth at 37° C. under anaerobic conditions until they reach the stationary phase. Approximately 1×10^6 bacteria cells were mixed with 7 ml of BHI agar medium containing 0.8% phytoagar and then, poured on the agar plate containing 1.5% phytoagar. The filter-paper discs (10 mm diameter) were treated with magnolol and honokiol at respective test concentrations, and then placed on the BHI agar plate inoculated with the test bacteria. The plate was incubated at 37° C. for 24 hours under anaerobic conditions, and then the antibacterial activity was determined by measuring the size of clear zone (growth inhibition halo) around the disk. The size of clear zone has the functional relation with the logarithmic value of magnolol or honokiol concentration, from which the standard calibration curve could be derived (FIG. 1). The unknown concentration of the test sample can be determined from this standard calibration curve. […] The antibacterial activity was remarkable at 6.25 μg/disk (0.39 mM) for honokiol and 12.5 μg/disk (0.78 mM) for magnolol (Table 1).

interleukin-8 = interleukin-8 production induced by heat-inactivated Staphylococcus aureus in THP-1 cells (ELISA); assay type: cell-based, human; conditions: heat-inactivated S. aureus 100 μg/ml, 48 hours
Experimental: In general, the inflammatory response generated by bacteria or bacterial components is mediated by proinflammatory cytokines. To determine whether magnolol or honokiol can inhibit the inflammatory response generated by Staphylococcus aureus ELISA for interleukin-8 and TNF-alpha was conducted. For this purpose, THP-1 cell line as human monocyte cell line was used. 1×10^6 THP-1 cells were incubated for 14 hours under serum-free conditions, and then treated with heat-inactivated Staphylococcus aureus 100 μg/ml alone or simultaneously with magnolol and honokiol, respectively, which was then incubated for 48 hours. The amounts of interleukin-8 and TNF-alpha secreted into cell culture medium were measured by means of ELISA kit (Genzyme, Minneapolis, Minn.).

TNF-alpha = TNF-alpha production induced by heat-inactivated Staphylococcus aureus in THP-1 cells (ELISA); assay type: cell-based, human; conditions: heat-inactivated S. aureus 100 μg/ml, 48 hours
Experimental: In addition, the experiment was conducted to identify the synergistic anti-inflammatory effect when magnolol and honokiol are combined in a certain ratio. The efficacy to inhibit the production of TNF-alpha was examined in cases where the combined ratio of magnolol and honokiol is 1 (7.5 μM):1 (7.5 μM), 1 (5 μM):2 (10 μM), and 2(10 μM):1 (5 μM) or in case of treating with 15 μM of magnolol alone or 15 μM of honokiol alone.

[2] = tested on: patients suffering from mild or moderate atopic dermatitis; assay: clinical evaluation of skin topical preparations in atopic dermatitis (EASI, pruritus); assay type: in vivo, human; conditions: applied as 1% cream; 2 and 4 weeks
Experimental: The cosmetic compositions for atopy containing magnolol, honokiol and pimecrolimus, respectively were prepared with the contents of components as listed in the following Table 3, according to the conventional method. In the following Table 3, the control group is for the skin topical preparation with no antibacterial and anti-inflammatory substance, and the test groups 1, 2 and 3 are for the cosmetic compositions for skin topical use to treat atopy containing magnolol, honokiol and pimecrolimus, respectively.
To prepare the skin topical preparation purified water, glycerin and butylene glycol were mixed and dissolved at 70° C. (aqueous part), and the remaining components except for the three components and trimethanolamine were dissolved at 70° C. (oil part). The oil part was added to the aqueous part and stirred with a homomixer (from Tokushu Kika Kogyo, Co., Ltd. In Japan) to induce the first emulsification to which trimethanolamine was finally added. […]
1) The symptoms and extent of atopic dermatitis were objectively determined using EASI (Eczema Area Severity Index) as follows, before treatment and 2 and 4 weeks after treatment. […]
EASI score and pruritus score were compared and evaluated by applying Kruskall-Wallis one-way ANOVA method as the basic statistical method before treatment and 2 and 4 weeks after treatment. […]

Staphylococcus aureus [3] = assay: Minimum Bacteriocidal Concentration / kinetics of bacterial killing; assay type: cell-based
Experimental: The inhibition of bacterial growth with a certain substance is the result obtained by inhibiting the proliferation of respective cells or killing the cells. […] The following experiment was conducted to determine the Minimum Bacteriocidal Concentration (MBC). First, the same procedures as the determination of MIC were conducted in the liquid culture medium, and then a portion of the culture medium in the test tube in which no proliferation was shown was taken, diluted to remove magnolol and honokiol therefrom, and then incubated on the solid culture medium and observed for the colony formation after 24 hours. At this time, MBC means the minimum value of magnolol or honokiol concentration in the original culture solution in the plate medium on which no colony was produced. To determine MBC of magnolol and honokiol Staphylococcus aureus was used, and magnolol or honokiol was applied at the concentration one, five and 10 times as high as MIC concentration thereof to determine the kinetics of bacterial killing. The survival rate of microbes was determined within 2 hours.

Staphylococcus aureus [4] = assay: Minimum Inhibitory Concentration, two-fold serial dilution; assay type: cell-based; conditions: 24 h, read-out: MIC of agents
Experimental: The test was conducted to determine the Minimum Inhibitory Concentrations (MIC) of magnolol and honokiol. Staphylococcus aureus incubated for 24 hours was introduced into 3 ml of brain heart infusion broth, and at the same time, magnolol and honokiol were respectively added thereto, and then incubated for 24 hours at 37° C. under anaerobic conditions. To determine MICs of honokiol and magnolol the two-fold serial dilution method was used. As used herein, MIC is defined as the minimum concentration at which the growth of microorganism is inhibited. As presented in Table 2, it could be confirmed that MICs of magnolol and honokiol for Staphylococcus aureus were 6 μg/ml and 2 μg/ml, respectively. That is, it can be seen that the antibacterial activity of honokiol is higher than that of magnolol.

Row | SMILES | Diameter of clear zone (Staphylococcus aureus [1]; 6.25 mg/disk (footnote a)) | Diameter of clear zone (Staphylococcus aureus [1]; 12.5 mg/disk (footnote a)) | Diameter of clear zone (Staphylococcus aureus [1]; 25 mg/disk (footnote a)) | Diameter of clear zone (Staphylococcus aureus [1]; 50 mg/disk (footnote a)) | production of interleukin-8 induced by Staphylococcus aureus (interleukin-8) | production of TNF-alpha induced by Staphylococcus aureus (TNF-alpha) | amount at which the antibacterial activity was remarkable (Staphylococcus aureus [1]; disk diffusion) | concentration at which the antibacterial activity was remarkable (Staphylococcus aureus [1]; disk diffusion, printed in brackets after μg/disk) | pruritus accompanied by atopic dermatitis (visual analog scale) [2] | concentration at which Staphylococcus aureus was completely exterminated within 10 minutes (Staphylococcus aureus [3]) | concentration at which Staphylococcus aureus was completely exterminated within 10 minutes (Staphylococcus aureus [3]; printed in brackets after μg/ml) | MIC (Staphylococcus aureus [4])
1 | CC[C@H]1OC(=O)[C@H](C)[C@@H](O[C@H]2C[C@@](C)(OC)[C@@H](O)[C@H](C)O2)[C@H](C)[C@@H](O[C@@H]2O[C@H](C)C[C@H](N(C)C)[C@H]2O)[C@](C)(O)C[C@@H](C)C(=O)[C@H](C)[C@@H](O)[C@]1(C)O [Erythromycin, reference compound] | 35 ± 2.2^c mm | 42 ± 3.8^c mm | 45 ± 2.5^c mm | 48 ± 5^c mm |  |  |  |  |  |  |  | 
2 | C=CCc1ccc(O)c(-c2cc(CC=C)ccc2O)c1 [Magnolol, 5,5′-di-2-propenyl-1,1′-biphenyl-2,2′-diol] |  | 11 ± 0.4^c mm | 15 ± 0.2^c mm | 18 ± 0.2^c mm | reduced | reduced | 12.5 μg/disk | 0.78 mM | significantly improved | 45 µg/mL | 169.2 µM | 6 µg/mL
